Measured values: patent US11911411B2, “Sulfated glycosaminoglycan biomaterials as proteoglycan mimics” (Glycologix, LLC, priority 2020, dated 2024)

Test system: bladder permeability in LPS-treated URO-MCP-1 mice
Experiment: CE-MRI (Gd-DTPA) assessment of bladder permeability, LPS-treated URO-MCP-1 transgenic mouse model of IC/BPS
Format: in vivo
Conditions: 20 mg/ml, 100 μl
Procedure: The URO-MCP-1 transgenic model was described previously. Cystitis with accompanying permeability were induced by intravesical administration of LPS at a sub-noxious dose of 1 jig of LPS in 100 μl of saline (Day 0, 9 a.m.). One control group was administered saline (100 μl) only (saline URO-MCP-1). Another control group consisting of wild-type (WT) mice was also administered saline only (saline-WT). Bladders were flushed 3 times with saline to remove any excess LPS 1 hour post-LPS injection. The next day (Day 1, 9 am) animals were treated with CS or SuperGAG (20 mg/ml in saline; 100 μl) or saline and the initial permeability was assessed 3 hours later (Day 1, 12:00 p.m.).
For MRI assessment of permeability, mice were anesthetized and treated as described above, but instead of euthanizing the mice, on Day 1, Day 3, and Day 5 the mice were anesthetized, instilled with the contrast agent Gd-DTPA and placed into the MRI instrument. MRI experiments were conducted on a 7 Tesla 30 cm-bore Bruker Biospec MRI system (Bruker Biospin Corporation, Woodlands, TX, U.S.A.). MRI scans were obtained at 1-, 3-, and 5-days following LPS instillation. For the bladder images, Gd-DTPA (0.034 mM Gd-DTPA diluted to 100 μl in saline), was administered via an intravesical catheter, for visualization of loss of permeability of the bladder urothelium. Bladder CE-MRI signal intensity changes were determined 7 minutes. post-contrast. For all MR images, a T1-weighted RARE (rapid acquisition with relaxation enhancement) MRI pulse sequence was used with the following parameters: repetition time (TR) of 1200 ms, echo time (TE) of 9 ms, a RARE factor of 4, 4 averages, an image slice thickness of 1 mm, a matrix of 256×256, a field-of-view (FOV) of 3.5×3.5 cm2, and with both motion and fat suppression. Animals were euthanized and the bladders placed in formalin for histopathology.

## chondroitin sulfate [CS]
Day 1, *p< (figure not given)
  percent change in MRI signal intensity versus LPS-treated URO-MCP-1 mice, day 1: significant decrease
Day 3, ***p<0.0001 for both
  percent change in MRI signal intensity versus LPS-treated URO-MCP-1 mice, day 3: significant decrease
Day 5, **p<0.01 for SuperGAG
  percent change in MRI signal intensity versus LPS-treated URO-MCP-1 mice, day 5: not significantly different to control
